τon-MK-801 data for 1 molecule are collected here from paper PMC13064811, “The Role of Disulfide Bonds in the GluN1 Subunit in the Early Trafficking and Functional Properties of GluN1/GluN2 and GluN1/GluN3 NMDA Receptors” (The Journal of Neuroscience, 2026).

Some targets named below: YFP-GluN1-1a/GluN2A (Rattus norvegicus, UniProt P35439+Q00959); YFP-GluN1-1a/GluN2B (Rattus norvegicus, UniProt P35439+Q00960); GluN1-4a/GluN2A (Rattus norvegicus, UniProt P35439+Q00959); GluN1-4a/GluN2B (Rattus norvegicus, UniProt P35439+Q00960).
Another assay deals with YFP-hGluN1-1a/hGluN2A (Homo sapiens, UniProt Q05586+Q12879). The assay is classed as cell-based.
The target of assay [1] is YFP-hGluN1-1a-C744Y/hGluN2A (Homo sapiens, UniProt Q05586+Q12879, C744Y). The assay is classed as cell-based.
The next assay concerns the target YFP-hGluN1-1a/hGluN2B (Homo sapiens, UniProt Q05586+Q13224). The assay is classed as cell-based.
Assay [2] deals with YFP-hGluN1-1a-C744Y/hGluN2B (Homo sapiens, UniProt Q05586+Q13224, C744Y). The assay is classed as cell-based.
Chain of YFP-hGluN1-1a-C744Y/hGluN2B (Q13224 27-1484, other chains not shown): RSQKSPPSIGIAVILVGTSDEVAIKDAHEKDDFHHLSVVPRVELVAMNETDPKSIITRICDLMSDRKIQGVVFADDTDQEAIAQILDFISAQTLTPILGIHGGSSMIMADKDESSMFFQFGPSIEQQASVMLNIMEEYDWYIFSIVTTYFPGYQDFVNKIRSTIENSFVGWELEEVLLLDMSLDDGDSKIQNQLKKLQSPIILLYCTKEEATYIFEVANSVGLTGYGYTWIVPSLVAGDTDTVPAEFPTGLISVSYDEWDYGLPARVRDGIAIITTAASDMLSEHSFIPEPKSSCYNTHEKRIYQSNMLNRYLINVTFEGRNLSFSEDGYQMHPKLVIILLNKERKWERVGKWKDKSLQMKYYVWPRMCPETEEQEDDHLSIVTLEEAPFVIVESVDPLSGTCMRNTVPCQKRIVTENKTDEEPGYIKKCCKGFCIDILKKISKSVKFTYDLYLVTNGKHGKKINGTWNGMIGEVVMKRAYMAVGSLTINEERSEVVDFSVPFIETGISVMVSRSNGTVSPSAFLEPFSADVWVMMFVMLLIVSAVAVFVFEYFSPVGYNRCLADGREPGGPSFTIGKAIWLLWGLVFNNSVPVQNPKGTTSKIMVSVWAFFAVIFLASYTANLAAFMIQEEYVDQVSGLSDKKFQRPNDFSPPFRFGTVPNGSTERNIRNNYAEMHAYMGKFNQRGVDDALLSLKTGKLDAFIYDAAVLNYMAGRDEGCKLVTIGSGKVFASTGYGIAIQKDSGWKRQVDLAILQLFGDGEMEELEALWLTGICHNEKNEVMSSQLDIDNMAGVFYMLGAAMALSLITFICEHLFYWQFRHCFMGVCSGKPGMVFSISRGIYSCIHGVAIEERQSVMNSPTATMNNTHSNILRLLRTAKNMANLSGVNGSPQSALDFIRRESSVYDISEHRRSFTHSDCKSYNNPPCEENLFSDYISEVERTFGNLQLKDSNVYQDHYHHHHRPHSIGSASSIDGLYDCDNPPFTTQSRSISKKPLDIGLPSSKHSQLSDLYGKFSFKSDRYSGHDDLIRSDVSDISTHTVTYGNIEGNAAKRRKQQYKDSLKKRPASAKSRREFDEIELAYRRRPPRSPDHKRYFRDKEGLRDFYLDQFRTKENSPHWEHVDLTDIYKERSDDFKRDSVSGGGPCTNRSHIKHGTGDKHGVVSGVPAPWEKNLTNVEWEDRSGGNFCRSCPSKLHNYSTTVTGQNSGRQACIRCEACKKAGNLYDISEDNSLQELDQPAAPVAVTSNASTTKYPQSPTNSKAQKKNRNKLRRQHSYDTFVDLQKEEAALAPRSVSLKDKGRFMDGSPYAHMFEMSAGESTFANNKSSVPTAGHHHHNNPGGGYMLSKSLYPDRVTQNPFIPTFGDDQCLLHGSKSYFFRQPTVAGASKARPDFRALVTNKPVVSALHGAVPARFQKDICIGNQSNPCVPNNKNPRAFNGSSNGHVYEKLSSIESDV
Assay [3] deals with YFP-GluN1-1a-C79S-C308S/GluN2A (Rattus norvegicus, UniProt P35439+Q00959, C308S/C79S).
Assay [4] addresses YFP-GluN1-1a-C420S-C454S/GluN2A (Rattus norvegicus, UniProt P35439+Q00959, C420S/C454S).
The target in assay [5] is YFP-GluN1-4a-C436S-C455S/GluN2A (Rattus norvegicus, UniProt P35439+Q00959, C436S/C455S).
The target of assay [6] is YFP-GluN1-1a-C744S-C798S/GluN2A (Rattus norvegicus, UniProt P35439+Q00959, C744S/C798S).
In assay [7] the target is YFP-GluN1-1a-C79S-C308S/GluN2B (Rattus norvegicus, UniProt P35439+Q00960, C308S/C79S).
The target in assay [8] is YFP-GluN1-1a-C420S-C454S/GluN2B (Rattus norvegicus, UniProt P35439+Q00960, C420S/C454S).
Assay [9] addresses YFP-GluN1-4a-C436S-C455S/GluN2B (Rattus norvegicus, UniProt P35439+Q00960, C436S/C455S).
For assay [10], the target named is YFP-GluN1-1a-C744S-C798S/GluN2B (Rattus norvegicus, UniProt P35439+Q00960, C744S/C798S).
Assay [11] addresses GluN1-4a-C79S-C308S/GluN2A (Rattus norvegicus, UniProt P35439+Q00959, C308S/C79S).
Assay [12] addresses GluN1-4a-C420S-C454S/GluN2A (Rattus norvegicus, UniProt P35439+Q00959, C420S/C454S).
Assay [13] concerns the target GluN1-4a-C436S-C455S/GluN2A (Rattus norvegicus, UniProt P35439+Q00959, C436S/C455S).
Assay [14] addresses GluN1-4a-C744S-C798S/GluN2A (Rattus norvegicus, UniProt P35439+Q00959, C744S/C798S).
In assay [15] the target is GluN1-4a-C79S-C308S/GluN2B (Rattus norvegicus, UniProt P35439+Q00960, C308S/C79S).
The target of assay [16] is GluN1-4a-C436S-C455S/GluN2B (Rattus norvegicus, UniProt P35439+Q00960, C436S/C455S).
The target of assay [17] is GluN1-4a-C744S-C798S/GluN2B (Rattus norvegicus, UniProt P35439+Q00960, C744S/C798S).

Chain of YFP-hGluN1-1a/hGluN2B (Q13224 27-1484, other chains not shown): as above
Chain of YFP-GluN1-4a-C436S-C455S/GluN2B (Q00960 27-1482, stated change not applied, other chains not shown): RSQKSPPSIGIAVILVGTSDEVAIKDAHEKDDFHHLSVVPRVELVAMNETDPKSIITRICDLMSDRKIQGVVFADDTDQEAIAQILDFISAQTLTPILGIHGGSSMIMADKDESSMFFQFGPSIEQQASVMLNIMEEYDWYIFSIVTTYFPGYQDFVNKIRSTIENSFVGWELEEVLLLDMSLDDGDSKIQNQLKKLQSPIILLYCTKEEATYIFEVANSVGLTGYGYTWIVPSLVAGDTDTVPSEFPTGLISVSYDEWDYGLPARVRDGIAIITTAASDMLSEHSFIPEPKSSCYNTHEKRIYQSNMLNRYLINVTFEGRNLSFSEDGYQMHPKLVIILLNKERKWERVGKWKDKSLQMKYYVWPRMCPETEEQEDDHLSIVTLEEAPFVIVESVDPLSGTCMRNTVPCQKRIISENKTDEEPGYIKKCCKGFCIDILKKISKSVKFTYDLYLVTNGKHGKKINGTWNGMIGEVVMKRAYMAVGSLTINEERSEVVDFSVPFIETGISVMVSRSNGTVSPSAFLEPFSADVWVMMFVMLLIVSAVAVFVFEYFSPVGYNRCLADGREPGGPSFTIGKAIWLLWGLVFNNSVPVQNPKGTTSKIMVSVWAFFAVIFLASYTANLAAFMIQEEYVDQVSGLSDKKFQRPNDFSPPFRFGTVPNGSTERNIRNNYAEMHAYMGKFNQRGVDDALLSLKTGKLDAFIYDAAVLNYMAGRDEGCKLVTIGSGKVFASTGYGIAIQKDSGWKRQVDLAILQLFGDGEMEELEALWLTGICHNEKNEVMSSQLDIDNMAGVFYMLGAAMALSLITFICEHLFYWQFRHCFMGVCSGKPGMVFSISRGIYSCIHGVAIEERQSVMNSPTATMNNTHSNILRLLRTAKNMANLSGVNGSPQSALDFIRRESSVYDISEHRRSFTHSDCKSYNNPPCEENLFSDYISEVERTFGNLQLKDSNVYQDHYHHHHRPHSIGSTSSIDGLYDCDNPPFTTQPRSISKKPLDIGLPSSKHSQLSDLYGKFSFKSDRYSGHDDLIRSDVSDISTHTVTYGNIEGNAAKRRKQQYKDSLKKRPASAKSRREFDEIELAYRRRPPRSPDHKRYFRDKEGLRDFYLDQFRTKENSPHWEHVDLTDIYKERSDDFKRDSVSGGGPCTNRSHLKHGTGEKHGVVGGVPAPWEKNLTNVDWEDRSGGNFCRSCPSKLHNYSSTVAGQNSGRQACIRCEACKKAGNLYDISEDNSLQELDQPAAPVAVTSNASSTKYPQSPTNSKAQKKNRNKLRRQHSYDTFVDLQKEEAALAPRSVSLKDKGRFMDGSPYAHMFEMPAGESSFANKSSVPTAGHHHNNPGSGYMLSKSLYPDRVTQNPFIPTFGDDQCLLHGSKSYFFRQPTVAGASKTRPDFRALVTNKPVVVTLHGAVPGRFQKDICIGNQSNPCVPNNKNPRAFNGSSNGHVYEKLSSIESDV

As to `C[C@]12N[C@H](Cc3ccccc31)c1ccccc12` [MK-801, Dizocilpine], the τon-MK-801 is on record as 789.63 ± 58.54 ms at YFP-hGluN1-1a/hGluN2A; 240.25 ± 29.53 ms in assay [1]; 2,008.90 ± 224.76 ms on YFP-hGluN1-1a/hGluN2B; 846.35 ± 52.08 ms in assay [2]; 1,178.37 ± 93.82 ms on YFP-GluN1-1a/GluN2A; 1,109.06 ± 65.15 ms in assay [3]. In addition, the τon-MK-801 is 1,045.30 ± 112.94 ms in [4]; 937.85 ± 78.10 ms in assay [5]; 345.28 ± 25.68 ms in assay [6]; 2,053.21 ± 117.07 ms at YFP-GluN1-1a/GluN2B; 3,010.09 ± 193.67 ms in assay [7]; 2,612.49 ± 167.91 ms in [8]. Further, the τon-MK-801 in assay [9] was 2,040.87 ± 282.26 ms; in [10], 765.01 ± 74.13 ms; at GluN1-4a/GluN2A it was 981.54 ± 19.11 ms; in assay [11] it was 1,038.07 ± 140.54 ms; in [12] it was 987.68 ± 105.05 ms; in assay [13], 910.61 ± 85.39 ms. The τon-MK-801 in assay [14] is given as 278.04 ± 55.79 ms; on GluN1-4a/GluN2B, 2,307.47 ± 151.45 ms; in assay [15] it was 3,355.73 ± 243.72 ms; in assay [16], 1,988.70 ± 356.79 ms; in assay [17], 486.89 ± 100.90 ms.
